Results: the NIST ThermoML archive (doi:10.1021/acs.jced.6b00655)

Assay: xn = mol fraction of the nth substance listed
Conditions: 100 kPa, Liquid, Vibrating tube method

CCCC[N+]1(C)CCCC1.O=S(=O)([N-]S(=O)(=O)C(F)(F)F)C(F)(F)F + CCc1ccccc1
283.15 K
Conditions	mass density [kg/m3]
x2 = 0	1410.45
x2 = 0.312	1332.47
x2 = 0.417	1296.15
x2 = 0.489	1268.45
x2 = 0.636	1201.58

CCCC[N+]1(C)CCCC1.O=S(=O)([N-]S(=O)(=O)C(F)(F)F)C(F)(F)F + Cc1ccc(C)cc1
283.15 K
Conditions	mass density [kg/m3]
x2 = 0	1407.6
x2 = 0.207	1361.17
x2 = 0.357	1315.5
x2 = 0.507	1254.4
x2 = 0.617	1193.73

CCCC[N+]1(C)CCCC1.O=S(=O)([N-]S(=O)(=O)C(F)(F)F)C(F)(F)F + Cc1cccc(C)c1
283.15 K
Conditions	mass density [kg/m3]
x2 = 0	1410.45
x2 = 0.206	1361.63
x2 = 0.372	1318.08
x2 = 0.491	1259.92
x2 = 0.616	1191.7

CCCC[N+]1(C)CCCC1.O=S(=O)([N-]S(=O)(=O)C(F)(F)F)C(F)(F)F + Cc1ccccc1
283.15 K
Conditions	mass density [kg/m3]
x2 = 0	1407.6
x2 = 0.509	1276.06
x2 = 0.574	1250.95
x2 = 0.611	1228.59
x2 = 0.73	1160.93

CCCC[N+]1(C)CCCC1.O=S(=O)([N-]S(=O)(=O)C(F)(F)F)C(F)(F)F + Cc1ccccc1C
283.15 K
Conditions	mass density [kg/m3]
x2 = 0	1407.6
x2 = 0.21	1360.77
x2 = 0.409	1303.44
x2 = 0.622	1224.4
x2 = 0.673	1207.6

CCCC[N+]1(C)CCCC1.O=S(=O)([N-]S(=O)(=O)C(F)(F)F)C(F)(F)F + c1ccccc1
283.15 K
Conditions	mass density [kg/m3]
x2 = 0	1410.45
x2 = 0.106	1394.11
x2 = 0.309	1355.03
x2 = 0.505	1296.91
x2 = 0.714	1203.57
x2 = 0.813	1133.23

CCCC[N+]1(C)CCCC1.N#CN=C=[N-] [1-butyl-1-methylpyrrolidinium dicyanamide] + CCc1ccccc1
283.15 K
Conditions	mass density [kg/m3]
x2 = 0	1022.97
x2 = 0.044	1020.28
x2 = 0.11	1016.49
x2 = 0.2	1010.5
x2 = 0.307	1002.43
x2 = 0.359	997.98
x2 = 0.397	994.71

CCCC[N+]1(C)CCCC1.N#CN=C=[N-] [1-butyl-1-methylpyrrolidinium dicyanamide] + Cc1ccc(C)cc1
283.15 K
Conditions	mass density [kg/m3]
x2 = 0	1022.94
x2 = 0.055	1019.77
x2 = 0.109	1015.55
x2 = 0.21	1009.54
x2 = 0.27	1005.7
x2 = 0.335	1000.17
x2 = 0.389	993.97

CCCC[N+]1(C)CCCC1.N#CN=C=[N-] [1-butyl-1-methylpyrrolidinium dicyanamide] + Cc1cccc(C)c1
283.15 K
Conditions	mass density [kg/m3]
x2 = 0	1022.94
x2 = 0.057	1019.68
x2 = 0.112	1016.11
x2 = 0.202	1009.68
x2 = 0.26	1006.3
x2 = 0.318	1000.45
x2 = 0.388	995.25

CCCC[N+]1(C)CCCC1.N#CN=C=[N-] [1-butyl-1-methylpyrrolidinium dicyanamide] + Cc1ccccc1
283.15 K
Conditions	mass density [kg/m3]
x2 = 0	1022.97
x2 = 0.054	1020.33
x2 = 0.103	1018.02
x2 = 0.205	1012.43
x2 = 0.304	1006.23
x2 = 0.387	1000.63
x2 = 0.454	993.84
x2 = 0.528	986.94

CCCC[N+]1(C)CCCC1.N#CN=C=[N-] [1-butyl-1-methylpyrrolidinium dicyanamide] + Cc1ccccc1C
283.15 K
Conditions	mass density [kg/m3]
x2 = 0	1022.97
x2 = 0.001	1022.98
x2 = 0.102	1018.02
x2 = 0.202	1011.22
x2 = 0.305	1005.51
x2 = 0.385	999.83
x2 = 0.433	997.35

CCCC[N+]1(C)CCCC1.N#CN=C=[N-] [1-butyl-1-methylpyrrolidinium dicyanamide] + c1ccccc1
283.15 K
Conditions	mass density [kg/m3]
x2 = 0	1021.84
x2 = 0.051	1020.09
x2 = 0.099	1018.22
x2 = 0.199	1014.33
x2 = 0.293	1009.95
x2 = 0.401	1004.03
x2 = 0.505	996.7
x2 = 0.61	987.41
x2 = 0.637	984.55
x2 = 0.665	981.11
x2 = 0.69	978.4
x2 = 0.718	973.87

CCCC[N+]1(C)CCCC1.O=S(=O)([O-])C(F)(F)F [1-butyl-1-methylpyrrolidinium trifluoromethanesulfonate] + CCc1ccccc1
283.15 K
Conditions	mass density [kg/m3]
x2 = 0	1263.17
x2 = 0.044	1254.99
x2 = 0.107	1240.68
x2 = 0.209	1220.18
x2 = 0.309	1193.98
x2 = 0.391	1174.45
x2 = 0.42	1164.28

CCCC[N+]1(C)CCCC1.O=S(=O)([O-])C(F)(F)F [1-butyl-1-methylpyrrolidinium trifluoromethanesulfonate] + Cc1ccc(C)cc1
283.15 K
Conditions	mass density [kg/m3]
x2 = 0	1263.17
x2 = 0.053	1249.16
x2 = 0.102	1242.37
x2 = 0.203	1216.86
x2 = 0.306	1195.95
x2 = 0.361	1180.48
x2 = 0.415	1164.5

CCCC[N+]1(C)CCCC1.O=S(=O)([O-])C(F)(F)F [1-butyl-1-methylpyrrolidinium trifluoromethanesulfonate] + Cc1cccc(C)c1
283.15 K
Conditions	mass density [kg/m3]
x2 = 0	1263.17
x2 = 0.054	1253.29
x2 = 0.11	1241.72
x2 = 0.202	1221.84
x2 = 0.308	1195.52
x2 = 0.352	1184.04
x2 = 0.402	1170.32
x2 = 0.418	1165.83

CCCC[N+]1(C)CCCC1.O=S(=O)([O-])C(F)(F)F [1-butyl-1-methylpyrrolidinium trifluoromethanesulfonate] + Cc1ccccc1
283.15 K
Conditions	mass density [kg/m3]
x2 = 0	1263.17
x2 = 0.052	1255.13
x2 = 0.102	1246.47
x2 = 0.221	1223.94
x2 = 0.313	1203.6
x2 = 0.4	1181.98
x2 = 0.516	1147.19
x2 = 0.579	1124.97

CCCC[N+]1(C)CCCC1.O=S(=O)([O-])C(F)(F)F [1-butyl-1-methylpyrrolidinium trifluoromethanesulfonate] + Cc1ccccc1C
283.15 K
Conditions	mass density [kg/m3]
x2 = 0	1263.17
x2 = 0.054	1252.3
x2 = 0.107	1243.62
x2 = 0.19	1225.81
x2 = 0.308	1197.9
x2 = 0.399	1174.56
x2 = 0.451	1160.97

CCCC[N+]1(C)CCCC1.O=S(=O)([O-])C(F)(F)F [1-butyl-1-methylpyrrolidinium trifluoromethanesulfonate] + c1ccccc1
283.15 K
Conditions	mass density [kg/m3]
x2 = 0	1263.28
x2 = 0.047	1257.62
x2 = 0.095	1251.22
x2 = 0.199	1235.63
x2 = 0.293	1218.76
x2 = 0.405	1195.65
x2 = 0.503	1170.77
x2 = 0.601	1140.47
x2 = 0.644	1125.22
x2 = 0.675	1112.49
x2 = 0.701	1101.39
x2 = 0.718	1093.71
x2 = 0.738	1084.59

CCCC[N+](C)(C)C.O=S(=O)([N-]S(=O)(=O)C(F)(F)F)C(F)(F)F [butyltrimethylammonium bis(trifluoromethylsulfonyl)imide] + CCc1ccccc1
343.15 K
Conditions	mass density [kg/m3]
x2 = 0	1348.32
x2 = 0.037	1345.32
x2 = 0.099	1330.93
x2 = 0.245	1295.53
x2 = 0.309	1271.7
x2 = 0.397	1243.17
x2 = 0.448	1221.88
x2 = 0.498	1201.31

CCCC[N+](C)(C)C.O=S(=O)([N-]S(=O)(=O)C(F)(F)F)C(F)(F)F [butyltrimethylammonium bis(trifluoromethylsulfonyl)imide] + Cc1ccc(C)cc1
343.15 K
Conditions	mass density [kg/m3]
x2 = 0	1348.32
x2 = 0.056	1341.21
x2 = 0.096	1332.06
x2 = 0.196	1307.74
x2 = 0.307	1273.97
x2 = 0.414	1235.93
x2 = 0.486	1205.85

CCCC[N+](C)(C)C.O=S(=O)([N-]S(=O)(=O)C(F)(F)F)C(F)(F)F [butyltrimethylammonium bis(trifluoromethylsulfonyl)imide] + Cc1cccc(C)c1
343.15 K
Conditions	mass density [kg/m3]
x2 = 0	1348.32
x2 = 0.057	1340.71
x2 = 0.099	1330.46
x2 = 0.2	1304.78
x2 = 0.305	1274.33
x2 = 0.411	1235.86
x2 = 0.45	1222.37
x2 = 0.502	1201.38

CCCC[N+](C)(C)C.O=S(=O)([N-]S(=O)(=O)C(F)(F)F)C(F)(F)F [butyltrimethylammonium bis(trifluoromethylsulfonyl)imide] + Cc1ccccc1
343.15 K
Conditions	mass density [kg/m3]
x2 = 0	1346.21
x2 = 0.1	1333.19
x2 = 0.202	1310.32
x2 = 0.316	1279.85
x2 = 0.404	1252.66
x2 = 0.502	1211.78
x2 = 0.61	1167.51
x2 = 0.643	1150.47

CCCC[N+](C)(C)C.O=S(=O)([N-]S(=O)(=O)C(F)(F)F)C(F)(F)F [butyltrimethylammonium bis(trifluoromethylsulfonyl)imide] + Cc1ccccc1C
343.15 K
Conditions	mass density [kg/m3]
x2 = 0	1348.32
x2 = 0.046	1343.67
x2 = 0.099	1331.9
x2 = 0.207	1306.39
x2 = 0.309	1276.95
x2 = 0.398	1246.25
x2 = 0.481	1213.91
x2 = 0.542	1191.25

CCCC[N+](C)(C)C.O=S(=O)([N-]S(=O)(=O)C(F)(F)F)C(F)(F)F [butyltrimethylammonium bis(trifluoromethylsulfonyl)imide] + c1ccccc1
343.15 K
Conditions	mass density [kg/m3]
x2 = 0	1348.32
x2 = 0.096	1335.57
x2 = 0.2	1316.52
x2 = 0.308	1288.49
x2 = 0.414	1262.43
x2 = 0.512	1229.56
x2 = 0.613	1185.89
x2 = 0.762	1105.62

CCCC[N+](C)(CCCC)CCCC.O=S(=O)([N-]S(=O)(=O)C(F)(F)F)C(F)(F)F [tributylmethylammonium bis((trifluoromethyl)sulfonyl)imide] + CCc1ccccc1
343.15 K
Conditions	mass density [kg/m3]
x2 = 0	1224.15
x2 = 0.105	1210.81
x2 = 0.203	1197.48
x2 = 0.295	1179.85
x2 = 0.389	1160.38
x2 = 0.461	1142.53
x2 = 0.584	1105.8
x2 = 0.701	1065.88
x2 = 0.732	1053.69

CCCC[N+](C)(CCCC)CCCC.O=S(=O)([N-]S(=O)(=O)C(F)(F)F)C(F)(F)F [tributylmethylammonium bis((trifluoromethyl)sulfonyl)imide] + Cc1ccc(C)cc1
343.15 K
Conditions	mass density [kg/m3]
x2 = 0	1224.15
x2 = 0.106	1209.82
x2 = 0.257	1187.07
x2 = 0.37	1163.42
x2 = 0.459	1143.06
x2 = 0.552	1114.23
x2 = 0.7	1057.46

CCCC[N+](C)(CCCC)CCCC.O=S(=O)([N-]S(=O)(=O)C(F)(F)F)C(F)(F)F [tributylmethylammonium bis((trifluoromethyl)sulfonyl)imide] + Cc1cccc(C)c1
343.15 K
Conditions	mass density [kg/m3]
x2 = 0	1224.18
x2 = 0.148	1203.79
x2 = 0.262	1185.69
x2 = 0.363	1165.61
x2 = 0.498	1130.77
x2 = 0.605	1095.81
x2 = 0.708	1059.94

CCCC[N+](C)(CCCC)CCCC.O=S(=O)([N-]S(=O)(=O)C(F)(F)F)C(F)(F)F [tributylmethylammonium bis((trifluoromethyl)sulfonyl)imide] + Cc1ccccc1
343.15 K
Conditions	mass density [kg/m3]
x2 = 0	1224.15
x2 = 0.055	1218.2
x2 = 0.104	1212.25
x2 = 0.199	1200.37
x2 = 0.303	1184.47
x2 = 0.411	1163.41
x2 = 0.586	1117.48
x2 = 0.799	1036.86
x2 = 0.84	1016.08
